Measurements published in patent US20080221114A1, “2-(Cyclic Aminocarbonyl) Indoline Derivative and Medicinal Composition Containing the Same” (priority 2005, published 2008).

Target: T1, mitochondrial benzodiazepine receptor (MBR) (Rattus norvegicus, UniProt P16257)
T1 construct: from tissue; host or cells: kidney of male Wistar rats (crude membrane preparation)
Assay: Binding assay of mitochondrial benzodiazepine receptor (MBR), [3H]4'-chlorodiazepam (Ro5-4864), rat kidney membrane-preparation
Details: rat kidney membranes, [3H]4'-chlorodiazepam 0.5 nM, 0° C. for 150 minutes
Description: The binding assay of central-type benzodiazepine receptor (CBR) and the preparation of receptor membrane-preparation were carried out according to the partially modified method of Braestrup, C. et al. [see; Br. J. Psychiatry, 133, 249-260 (1978)] with a minor modification; the binding assay of mitochondrial benzodiazepine receptor (MBR) and the preparation of receptor membrane-preparation were carried out according to the method of Schoemaker, H [see; J. Pharmacol. Exp. Ther., 225, 61-69 (1983)] with a minor modification.
CBR and MBR membrane-preparations were prepared from forebrain (CBR) and kidney (MBR) of male Wistar strain rats according to the following procedure, respectively.
To the forebrain of rat, 20 volumes of ice-cold 0.32 M sucrose solution to wet-weight of the tissue (1:20, wet-weight/vol) was added and homogenized, and then the homogenate was centrifuged at 900×g for 10 minutes. The supernatant was centrifuged at 11,500×g for 20 minutes, a buffer I for the binding assay (50 mM Tris-hydrochloric acid buffer, pH 7.5) was added to the resultant precipitate, and the mixture was homogenized, and then it was centrifuged at 30,000×g for 10 minutes. The resulting precipitate was washed 3 times according to the same operation, suspended in the buffer I (1 g of wet-weight of tissue/10 ml) and used as a CBR membrane-preparation for the binding assay. The CBR membrane-preparation was stored at −80° C. until use, and on the day of the assay, it was thawed and suspended in the buffer for use. On the other hand, kidney of rat was homogenized in 20 volumes of ice-cold buffer II for the binding assay to wet-weight of the tissue (1:20, wet-weight/vol) (50 mM sodium phosphate-potassium phosphate buffer solution containing 100 mM sodium chloride, pH 7.4), and then filtrated through 4 layers of gauze, and the filtrate was centrifuged at 40,000×g for 20 minutes. The resulting precipitate was suspended in the buffer II (1 g of wet-weight of tissue/50 ml) and used as a MBR membrane-preparation for the binding assay.
As a labeled ligand and a non-labeled ligand, [^3H]flunitrazepam (final concentration: 1 nM) and diazepam (final concentration: 20 μM) were used respectively, for the CBR binding assay, and [^3H]4′-chlorodiazepam (Ro5-4864, chemical name: 7-chloro-1,3-dihydro-1-methyl-5-(4-chloro-phenyl)-2H-1,4-[…]) (final concentration: 0.5 nM) and diazepam (final concentration: 50 μM) were used respectively, for the MBR binding assay. The binding assay of CBR was carried out by incubating at 0° C. for 30 minutes, while that of MBR was at 0° C. for 150 minutes.
The receptor binding assay was carried out in the following procedure. The test compound which the concentration was known, a tritium labeled ligand, a receptor membrane-preparation and the buffer I or II for the binding assay were added to a 96-well microplate in the total volume was 0.2 ml, and when the receptor membrane-preparation was added, the reaction started. After the incubation, the labeled ligand binding to the receptor was filtrated through a filter plate (UNI FILTER-96GF/B, PerkinElmer, the U.S.) using a cell harvester (PerkinElmer, the U.S.) to stop the reaction. The filter was immediately washed 6 times with 0.3 ml of the ice-cold buffer [50 mM Tris-hydrochloric acid buffer (pH 7.7)]. After 30 μl of liquid scintillation cocktail (MICROSCINTI 20, PerkinElmer, the U.S.) was added to each well on the dried filter plate, the radioactivity was measured with a TopCount. The specific binding amount was obtained by subtracting the non-specific binding amount which was simultaneously measured in the presence of non-labeled ligand from the total binding amount. The concentration that the test compound could decrease the specific binding amount of the labeled ligand to 50% of the amount (IC50 value) was analyzed using nonlinear least-squares method.

Row | Structure (SMILES) | IC50
1 | CCC1CCN(C(=O)[C@@H]2Cc3ccccc3N2c2ccc(=O)n(C)n2)C1 (stereo partly drawn) [Example 149, (S)-2-[(3-ethylpyrrolidin-1-yl)carbonyl]-1-(1-methyl-6-oxo-1,6-dihydropyridazin-3-yl)indoline] | 5.35 nM
2 | C[C@@H]1C[C@H](C)CN(C(=O)[C@@H]2Cc3ccccc3N2c2ncccc2N)C1 [Example 55, (S)-1-(3-aminopyridin-2-yl)-2-[(cis-3,5-dimethylpiperidin-1-yl)carbonyl]indoline] | 55.1 nM
3 | CC1c2ccccc2N(c2ccc(=O)n(C)n2)C1C(=O)N1CCC[C@H](C)C1 (stereo partly drawn) [Example 141, 3-methyl-1-(1-methyl-6-oxo-1,6-dihydropyridazin-3-yl)-2-[[(S)-3-methylpiperidin-1-yl]carbonyl]indoline] | 12.3 nM
4 | Cn1nc(N2c3cc(F)ccc3CC2C(=O)N2CCCCCC2)ccc1=O (stereo not drawn) [Example 158, 6-fluoro-1-(1-methyl-6-oxo-1,6-dihydropyridazin-3-yl)-2-[(1-perhydroazepinyl)carbonyl]indoline] | 28.5 nM
5 | C[C@H]1CCCN(C(=O)[C@@H]2Cc3ccccc3N2c2ccc(=O)[nH]n2)C1 [Example 143, (S)-2-[[(S)-3-methylpiperidin-1-yl]carbonyl]-1-(6-oxo-1,6-dihydropyridazin-3-yl)indoline] | 8.69 nM
6 | C[C@H]1CCCN(C(=O)[C@@H]2Cc3ccccc3N2c2ccc3nncn3n2)C1 [Example 154, (S)-2-[[(S)-3-methylpiperidin-1-yl]carbonyl]-1-(1,2,4-triazolo[4,3-b]pyridazin-6-yl)indoline] | 5 nM
7 | CC1CCN(C(=O)[C@@H]2Cc3ccccc3N2c2ccc(=O)n(C)n2)C1 (stereo partly drawn) [Example 148, (S)-1-(1-methyl-6-oxo-1,6-dihydropyridazin-3-yl)-2-[(3-methylpyrrolidin-1-yl)carbonyl]indoline] | 44.7 nM
8 | C[C@H]1CCCN(C(=O)[C@@H]2Cc3ccccc3N2c2ccc(=O)n(CC3CCC3)n2)C1 [Example 125] | 1.33 nM
9 | C[C@H]1CCCN(C(=O)[C@@H]2Cc3ccccc3N2c2ccc(=S)n(C)n2)C1 [Example 139, (S)-2-[[(S)-3-methylpiperidin-1-yl]carbonyl]-1-(1-methyl-6-thioxo-1,6-dihydropyridazin-3-yl)indoline] | 7.15 nM
10 | Cn1nc(N2c3ccccc3CC2C(=O)N2CCCC(C(F)(F)F)C2)ccc1=O (stereo not drawn) [Example 108] | 17.7 nM
11 | CCC(C)n1nc(N2c3ccccc3CC2C(=O)N2CCCC(C)C2)ccc1=O (stereo not drawn) [Example 76] | 3.04 nM
12 | C[C@H]1CCCN(C(=O)[C@@H]2Cc3ccccc3N2c2ccc(=O)n(C3CCCC3)n2)C1 [Example 126] | 2.69 nM
13 | C[C@H]1CCCN(C(=O)[C@@H]2Cc3ccccc3N2c2nccs2)C1 [Example 153, (S)-2-[(S)-3-methylpiperidin-1-yl]carbonyl-1-(1,3-thiazol-2-yl)indoline] | 1.13 nM
14 | CC1c2ccccc2N(c2ccc(Cl)nn2)C1C(=O)N1CCC[C@H](C)C1 (stereo partly drawn) [Example 140, 1-(6-chloropyridazin-3-yl)-3-methyl-2-[[(S)-3-methylpiperidin-1-yl]carbonyl]indoline] | 3.84 nM
15 | C[C@H]1CCCN(C(=O)C2Cc3c(F)cccc3N2c2ccc(=O)n(C)n2)C1 (single isomer, unassigned) [Example 155b] | 8.69 nM
16 | CC1CCCCN(C(=O)[C@@H]2Cc3ccccc3N2c2ccc(=O)n(C)n2)C1 (stereo partly drawn) [Example 150, (S)-1-(1-methyl-6-oxo-1,6-dihydropyridazin-3-yl)-2-[(3-methylperhydroazepin-1-yl)carbonyl]indoline] | 5.36 nM
17 | CCCC1CCCN(C(=O)[C@@H]2Cc3ccccc3N2c2ccc(=O)n(C)n2)C1 (stereo partly drawn) [Example 147, (S)-1-(1-methyl-6-oxo-1,6-dihydropyridazin-3-yl)-2-[(3-propylpiperidin-1-yl)carbonyl]indoline] | 3.8 nM
18 | CC1CCCN(C(=O)[C@H]2[C@@H](O)c3ccccc3N2c2ccc(=O)n(C)n2)C1 (relative stereo) [Example 159, cis-3-hydroxy-1-(1-methyl-6-oxo-1,6-dihydropyridazin-3-yl)-2-[(3-methylpiperidin-1-yl)carbonyl]-indoline] | 61.5 nM
19 | Cn1nc(N2c3ccccc3C[C@H]2C(=O)N2CCCC(C)(C)C2)ccc1=O [Example 152, (S)-2-[(3,3-dimethylpiperidin-1-yl)carbonyl]-1-(1-methyl-6-oxo-1,6-dihydropyridazin-3-yl)indoline] | 7.29 nM
20 | C[C@H]1CCCN(C(=O)[C@@H]2Cc3ccccc3N2c2ccc(=O)n(CC(=O)c3ccccc3)n2)C1 [Example 124] | 2.39 nM
21 | CCC1CCCCN(C(=O)[C@@H]2Cc3ccccc3N2c2ccc(=O)n(C)n2)C1 (stereo partly drawn) [Example 151, (S)-2-[(3-ethylperhydroazepin-1-yl)carbonyl]-1-(1-methyl-6-oxo-1,6-dihydropyridazin-3-yl)indoline] | 3.59 nM
22 | CC1CCCCN1C(=O)[C@@H]1Cc2ccccc2N1c1ccc(=O)n(C)n1 (stereo partly drawn) [Example 145, (S)-1-(1-methyl-6-oxo-1,6-dihydropyridazin-3-yl)-2-[(2-methylpiperidin-1-yl)carbonyl]indoline] | 31 nM
23 | C[C@@H]1C[C@H](C)CN(C(=O)[C@@H]2Cc3ccccc3N2c2cccnc2)C1 [Example 33] | 1.99 nM
24 | CCc1ccc2c(c1)C[C@@H](C(=O)N1CCC[C@H](C)C1)N2c1cccnn1 [Example 105, (S)-5-ethyl-2-[(S)-3-methylpiperidin-1-yl]-carbonyl-1-(3-pyridazinyl)indoline] | 80.7 nM
25 | CCC1CCCN(C(=O)[C@@H]2Cc3ccccc3N2c2ccc(=O)n(C)n2)C1 (stereo partly drawn) [Example 146, (S)-2-[(3-ethylpiperidin-1-yl)carbonyl]-1-(1-methyl-6-oxo-1,6-dihydropyridazin-3-yl)indoline] | 4.91 nM
26 | C[C@H]1CCCN(C(=O)C2Cc3c(F)cccc3N2c2ccc(=O)n(C)n2)C1 (single isomer, unassigned) [Example 155a] | 4.36 nM
27 | Cn1nc(N2c3ccccc3C[C@H]2C(=O)N2CCCCCCC2)ccc1=O [Example 119, (S)-1-(1-methyl-6-oxo-1,6-dihydropyridazin-3-yl)-2-[(1-perhydroazocinyl)carbonyl]indoline] | 3.98 nM
28 | C[C@H]1CCCN(C(=O)C2Cc3cc(O)ccc3N2c2ccc(=O)n(C)n2)C1 (stereo partly drawn) [Example 136, 5-hydroxy-1-(1-methyl-6-oxo-1,6-dihydropyridazin-3-yl)-2-[[(S)-3-methylpiperidin-1-yl]carbonyl]indoline] | 67 nM
29 | Cn1nc(N2c3ccccc3C[C@H]2C(=O)N2CCCCCC2)ccc1=O [Example 118, (S)-1-(1-methyl-6-oxo-1,6-dihydropyridazin-3-yl)-2-[(1-perhydroazepinyl)carbonyl]indoline] | 4.22 nM
30 | Cn1nc(N2c3cccc(F)c3CC2C(=O)N2CCCCCC2)ccc1=O (stereo not drawn) [Example 156, 4-fluoro-1-(1-methyl-6-oxo-1,6-dihydropyridazin-3-yl)-2-[(1-perhydroazepinyl)carbonyl]indoline] | 2.76 nM

Test system: not given
Assay: not given
Details: not given

Row | Structure (SMILES) | melting point
31 | C[C@H]1CCCN(C(=O)[C@@H]2Cc3ccccc3N2c2ccc(=O)n(CC3CCC3)n2)C1 (hydrate or solvate) [Example 125] | 221 to 223 °C
32 | Cn1nc(N2c3ccccc3C[C@H]2C(=O)N2CCCCCCC2)ccc1=O (hydrate or solvate) [Example 119, (S)-1-(1-methyl-6-oxo-1,6-dihydropyridazin-3-yl)-2-[(1-perhydroazocinyl)carbonyl]indoline] | 179 to 182 °C
33 | Cn1nc(N2c3ccccc3C[C@H]2C(=O)N2CCCCCC2)ccc1=O (hydrate or solvate) [Example 118, (S)-1-(1-methyl-6-oxo-1,6-dihydropyridazin-3-yl)-2-[(1-perhydroazepinyl)carbonyl]indoline] | 198 to 199 °C
